Experimental data published in patent publication US12239650B2, “Compounds for treating and preventing net associated complications” (The Australian National University, priority 2019, dated 2025).

Key:
[1] = tested on: histone-induced platelet aggregation; assay: Histone-induced aggregation of isolated platelets; format: cell-based, human; conditions: FIG. 4b; for Inhibition of histone-induced platelet aggregation: histones 150 μg/mL, isolated platelets
Description: In vitro platelet aggregation and degranulation assays. For aggregation studies platelets were isolated from human whole blood collected into Na-citrate vacutainers through 2-step centrifugation at room temperature (200×g for 20 min then the platelet-rich plasma 800×g for 15 min), the platelet pellet resuspended in Hank's balanced salt solution containing calcium and magnesium and histones added and incubated in the presence/absence of compounds at the concentrations of each as indicated. Samples were assessed for degree of platelet aggregation after 15 min exposure to histones by flow cytometry using the characteristic log FSC versus log SSC identification of platelets, with increases in the geometric mean of log FSC indicative of platelet aggregation.

[2] = tested on: histone-induced Ca2+ flux by HMEC-1; assay: Calcium flux in endothelial cells (Indo-1 flow cytometry); format: cell-based, human; conditions: compounds 100 μg ml^−1, histones 100 μg ml^−1, FIG. 5c
Description: Calcium flux studies in endothelial cells. HMEC-1 (2×10^7 ml^−1) in RPMI-1640 medium were incubated with Indo-1 AM (5 μM) (ThermoFisher) (Tellam, R. L. & Parish, C. R. The effect of sulfated polysaccharides on the free intracellular calcium ion concentration of lymphocytes. Biochim Biophys Acta 930, 55-64 (1987); and Weston, S. A., Tellam, R. L. & Parish, C. R. Dextran sulfate induces changes in the free intracellular calcium ion concentration of a subpopulation of immature thymocytes. Immunol Cell Biol 69, 369-376 (1991)) at 37° C. for 60 min. After 3 washes with RPMI-1640 medium supplemented with 5% FCS the cells were resuspended at 4×10^6 ml^−1 in ice-chilled HEPES-buffered saline (NaCl 8 g l^−1, KCl 0.4 g l^−1, CaCl2 0.2 g l^−1, MgCl2·6H2O 0.2 g l^−1, D-glucose 1.8 g l^−1, pH 7.4) supplemented with 10 mM HEPES. […] Intracellular Ca^2+ flux was monitored using flow cytometry. […] After the exclusion of cellular debris and clumped cells (on the basis of FSC/SSC light scattering) the basal Ca^2+ level was monitored for 2 min before histone addition in the presence/absence of novel compounds. Ca^2+ levels were measured at 1, 3 and 9 min post-histone addition with a constant flow rate (˜300 events/sec). Ca^2+ flux was determined as an increase in the ratio of geometric mean fluorescence intensity (GMFI) of Ca^2+-bound over Ca^2+-unbound Indo-1.

histones [3] = assay: In-vivo histone toxicity assay; conditions: mice; for Relative potency in protecting from histone-induced tissue pathologies / Protection from histone-induced liver damage, generalised tissue injury and kidney failure (circulating ALT, LDH, creatinine): FIG. 6a; for Protection from histone-induced liver damage, generalised tissue injury and kidney failure (circulating ALT, LDH, creatinine): compound i.p. 10 min prior to i.v. histones 50 mg kg^−1, blood 4 h post-histones, concentration-dependent
Description: In-vivo histone toxicity assays. BALB/c female mice (5-6 weeks of age), that are more prone to histone-induced anemia and easier to inject i.v. at this young age than C57BL/6 mice, were injected i.p. with test compounds at concentrations indicated 10 min prior to i.v. injection of histones (50 mg kg^−1) in phosphate buffered saline. Retro-orbital bleeds were performed with glass Pasteur pipettes 10 min after histone injection and collected blood added to acid citrate dextrose (ACD), the 10 min blood sample being subjected to hematologic analyses for platelet and erythrocyte content using an ADVIA 2120i Hematology Analyzer. Spleens were also harvested at 10 min post-histone injection and splenic hemoglobin content quantified using a hemoglobin assay kit (Sigma-Aldrich). In the case of 4 h blood samples, male C57/BL/6 mice (6-8 weeks of age) were injected with test compounds and histones as above and plasma isolated and stored frozen for subsequent biochemical testing, with markers for liver (alanine aminotransferase, ALT), kidney (creatinine, Crea) and general tissue (lactate dehydrogenase, LDH) damage being determined by the Department of Pathology, The Canberra Hospital.

histones [4] = assay: Murine histone-induced deep vein thrombosis (DVT) model; format: in vivo; conditions: mice, histones 10 mg kg^−1 i.v., compound 50 mg kg^−1 i.v., 48 h, FIG. 6c
Description: Murine deep vein thrombosis (DVT) model. The procedure used is largely as previously described (Brill, A. et al. Neutrophil extracellular traps promote deep vein thrombosis in mice. J Thromb Haemost 10, 136-144 (2012)). […] The peritoneum and skin were closed following which all mice received an i.v. injection of histones via the tail vein (10 mg kg^−1) or an equivalent volume of saline followed 5 min later by an i.v. injection of test compounds (50 mg kg^−1) or saline. Mice were monitored for 48 h after which they were re-anesthetized, re-opened and any thrombi that had developed distal to the IVC stenosis were removed for analysis. Sham operated control animals received laparotomy and 90% ligation of the IVC, however the ligation was removed immediately after occlusion of the IVC.

[5] = Rat cardiac ischemia reperfusion injury model; format: in vivo; conditions: rats, 30 mg kg^−1 into left ventricle 5 min prior to reperfusion, FIG. 7c
Excerpt: Rat cardiac ischemia reperfusion injury model. The method used is based on a combination of previously published procedures (Takada, Y., Hashimoto, M., Kasahara, J., Aihara, K. & Fukunaga, K. Cytoprotective effect of sodium orthovanadate on ischemia/reperfusion-induced injury in the rat heart involves Akt activation and inhibition of fodrin breakdown and apoptosis. J Pharmacol Exp Ther 311, 1249-1255 (2004); and Hale, S. L., Dae, M. W. & Kloner, R. A. Hypothermia during reperfusion limits ‘no-reflow’ injury in a rabbit model of acute myocardial infarction. Cardiovasc Res 59, 715-722 (2003)). Male Wistar rats were anaesthetized with isofluorane, intubated via tracheostomy and ventilated with a tidal volume of 1 ml 150 g^−1 and a respiratory rate of 65 breaths min^−1. Supplemental oxygen was delivered at a FiO2 of ˜30%. […]
At the conclusion of reperfusion (30 min), Thioflavin S (1 ml 200 g^−1 of body weight) was slowly injected into the lumen of the left ventricle, to define the territory of microvascular obstruction (MVO) within the ischemic zone (IZ). The IZ territory was determined by the re-occlusion of the atraumatic snare and infusion of blue microspheres into the left ventricle (Unisperse Blue, BASF), distributed within solutions via ultrasonication using a CD-6800 (Unisonics) sonicator. […] Planimetry (Image J, Freeware) was used to quantify the areas of the IZ, MVO and necrosis.

SMILES | Relative activity in inhibiting histone-induced platelet aggregation [1] | Inhibition of histone-induced platelet aggregation [1] | Effect on histone-induced Ca2+ response [2] | Histone-induced thrombocytopenia and anaemia (histones [3]; 100 mg kg^−1 i.p., 10 min post-histones, FIG. 6b) | Relative potency in protecting from histone-induced tissue pathologies (histones [3]) | Protection from histone-induced liver damage, generalised tissue injury and kidney failure (circulating ALT, LDH, creatinine) (histones [3]) | Inhibition of histone-mediated DVT (histones [4]) | Reduction of area of microvascular obstruction and myocardial necrosis in the ischemic zone [5]
O=S(=O)(O)OC[C@H]1O[C@H](O[C@H]2[C@H](OS(=O)(=O)O)[C@@H](OS(=O)(=O)O)C(OS(=O)(=O)O)O[C@@H]2COS(=O)(=O)O)[C@H](OS(=O)(=O)O)[C@@H](OS(=O)(=O)O)[C@@H]1O[C@H]1O[C@H](COS(=O)(=O)O)[C@@H](OS(=O)(=O)O)[C@H](OS(=O)(=O)O)[C@H]1OS(=O)(=O)O (some centres unmarked) [MTS, maltotriose per-O-sulfate] | most active | completely inhibited | totally ablated | prevented | most potent | protected | almost totally inhibited | totally ineffectual
O=S(=O)(O)OC[C@H]1O[C@@H](O[C@H]2[C@H](OS(=O)(=O)O)[C@@H](OS(=O)(=O)O)C(OS(=O)(=O)O)O[C@@H]2COS(=O)(=O)O)[C@H](OS(=O)(=O)O)[C@@H](OS(=O)(=O)O)[C@@H]1OS(=O)(=O)O (some centres unmarked) [CBS, cellobiose per-O-sulfate] |  | completely inhibited | substantially inhibited |  | equally active | protected | almost totally inhibited | 50%
